The values that follow come from US20210393621A1, “COMBINATION SEROTONIN SPECIFIC REUPTAKE INHIBITOR AND SEROTONIN 1A RECEPTOR PARTIAL AGONIST FOR REDUCING L-DOPA-INDUCED DYSKINESIA” (The Research Foundation for The State University of new York, priority 2018, published 2021).

One data set concerns the target T1, 5-HT1A receptor (Homo sapiens, UniProt P08908).
T1 sequence (P08908 1-422): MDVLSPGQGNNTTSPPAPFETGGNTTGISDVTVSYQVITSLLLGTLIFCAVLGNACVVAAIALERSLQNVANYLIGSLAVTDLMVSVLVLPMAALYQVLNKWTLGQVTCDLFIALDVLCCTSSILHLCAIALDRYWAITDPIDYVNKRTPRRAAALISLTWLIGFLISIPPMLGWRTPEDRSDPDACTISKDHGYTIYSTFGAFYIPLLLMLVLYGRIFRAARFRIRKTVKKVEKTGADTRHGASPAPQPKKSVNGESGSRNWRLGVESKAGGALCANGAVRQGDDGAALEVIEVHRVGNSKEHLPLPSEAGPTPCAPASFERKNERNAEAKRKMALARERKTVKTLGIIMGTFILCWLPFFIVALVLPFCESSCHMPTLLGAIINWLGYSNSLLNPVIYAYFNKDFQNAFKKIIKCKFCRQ
Set-up: expressed in transfected cells; host or cells: SF9 cells. The following applies: 5-HT1A receptor expressed in SF9 cells; cited from earlier work.

Data set [1] deals with extracellular 5-HT, dopamine and norepinephrine. The following applies: cited from earlier work; for extracellular dopamine and norepinephrine: rat brain, vilazodone 1 and 10 mg/kg; for maximal increase of extracellular 5-HT: rats, acute systemic injection, measured 3 h after injection.
In another data set the test system is DRN 5-HT neurons. The experiment in a line: Example 3: in vivo single-unit recordings of DRN 5-HT neurons. Set-up: species or system rats.
The test system of data set [2] is unilateral 6-OHDA-lesioned rats. The experiment in a line: Example 2: stepping test. The data set is classed as in vivo, Sprague-Dawley rats. The following applies: vilazodone 10 mg/kg or escitalopram 12.5 mg/kg + L-DOPA 5 mg/kg; 60 minutes post L-DOPA.
Experimental: 6-OHDA-induced dopaminergic lesions: Adult male Sprague-Dawley rats were randomly assigned to groups receiving either a 6-OHDA or sham lesion. All rats received desipramine (10 mg/kg i.p.) 30 min prior to surgery to prevent the lesioning of norepinephrine neurons by 6-OHDA. A single injection of 6-OHDA (8 μg of 6-OHDA free base in 4 μl of 0.1% ascorbic acid) was delivered into the right medial forebrain bundle (coordinates taken from bregma: −4.3 mm AP, 1.6 mm ML, −8.3 mm DV). The same experimental treatment was performed for the sham-operated rats using vehicle (4 μl of 0.1% ascorbic acid). A standard stepping test was used to evaluate the effectiveness of the 6-OHDA lesion.
Rats were treated for 5 consecutive days/week (Mon-Fri), for 2 weeks. On the second day of each week, stepping tests were performed prior to drug administration, and 60 minutes post L-DOPA treatment.
The test system is the same in data set [3]. The experiment in a line: Example 2: L-DOPA-induced dyskinesias (LIDs) scoring. The data set is classed as in vivo, Sprague-Dawley rats. Here is the method:
6-OHDA-induced dopaminergic lesions: Adult male Sprague-Dawley rats were randomly assigned to groups receiving either a 6-OHDA or sham lesion. […] [[…] 2019]. […] Rats were treated for 5 consecutive days/week (Mon-Fri), for 2 weeks. […] All rats were evaluated three times per week for the presence of L-DOPA-induced dyskinesias (LIDs) (Wed-Fri) and once for the stepping test (Tue). […] Scores were given over 1 min epochs and classified as axial, limb, orolingual and locomotive. […] Arrows=inhibitory input; dashed arrows=compromised function. The severity of each LID was scored using a standard scale. Each dyskinetic behavior was given an intensity and frequency score, which were then multiplied. The average sum of the products of each LID was determined in each animal.

Data set [4] concerns 6-OHDA-lesioned hemi-parkinsonian rats. Kind of data set: Experiment 1: forepaw adjusting steps (FAS). The conditions noted are these: L-DOPA-primed rats; VZD 0, 10 or 20 mg/kg + L-DOPA 6 mg/kg; 60 min post-L-DOPA. The data set is classed as in vivo, Sprague-Dawley rats. An excerpt: (§1) Conti et al., 2014). […] Forepaw adjusting steps (FAS): The FAS test is a measure of forelimb akinesia performed according to previous protocols (Bishop et al., 2012; Chang et al., 1999). Data are presented as mean percent intact stepping where the sum of the total steps with the lesioned forepaw was divided by the total steps with the unlesioned forepaw multiplied by 100. Lower percent intact scores indicate greater forelimb akinesia. Prior to baseline, rats received 2 acclimation periods. On-treatment FAS was performed 60 min post-L-DOPA.

Data set [5] has as its system striatal and raphe tissue monoamines. Kind of data set: Experiment 1: HPLC of tissue monoamines and metabolites in striatum and dorsal raphe nucleus. The following applies: for 5-HIAA / 5-HT / 5-HT Turnover / DA / DA Turnover / DOPAC: Striatum, VZD(0) + LD(6) mg/kg, 60 min post-LD.
Experimental: Three-weeks post-lesion, animals were divided into 2 equally disabled groups, measured by forepaw adjusting steps (FAS, see below). One group (n=8) began receiving 14 days of daily vehicle (0.9% NaCl+0.1% ascorbic acid) and the other (n=22) received L-DOPA methyl ester (6 mg/kg, s.c.; Sigma)+DL-serine 2-(2,3,4-trihydroxybenzyl) hydrazine hydrochloride (benserazide; 15 mg/kg, s.c.; Sigma), hereafter L-DOPA, dissolved in vehicle at a volume of 1 mg/kg. Treatment persisted for 14 days to produce stable AIMs expression (Putterman et al., 2007; Conti et al., 2014). Thereafter, L-DOPA-treated animals with Axial, Limb, and Orolingual (ALO) AIMs (see description below, FIG. 1A)<30 were excluded from the study and the remaining L-DOPA-treated animals were divided into 3 equally dyskinetic groups. […] Daily injections continued over 23 days, with behavior assayed on Days 15, 22, 29, and 36. On Day 37, animals were killed 60 min post-treatment Left and right dorsal striata and DRN were dissected and flash frozen for HPLC analyses.
High-performance liquid chromatography (HPLC): HPLC, a method for semi-automated catecholamine analysis with coulometric detection, was performed according to prior protocols (Bishop et al., 2009) to determine the tissue levels of monoamines, their metabolites, and monoamine turnover in the striatum and DRN. The limit of detection for DOPAC, DA, 5-hydroxyindoleacetic acid (5-HIAA) and 5-HT was 10^−10 M. Final oxidation current values were plotted on a standard curve from 10^−6 M to 10^−9 M and expressed as pg of monoamine or metabolite per mg of tissue unless otherwise specified.
On the final treatment day, animals were sacrificed 60 min post-LD treatment and left and right striata and dorsal raphe nucleus (DRN) were collected for high performance liquid chromatography (HPLC) analysis. Values (means±standard mean error) are expressed as picograms of monoamine or metabolite per milligram wet tissue weight. Turnover estimates were determined by dividing a subjects metabolite value by its corresponding monoamine. Differences were assessed by a 2×4 (lesion×treatment) ANOVA, followed by Fisher's LSD post-hocs when appropriate. *p<0.01 vs lesion vs intact; +p<0.05 vs all; ^p<0.05 vs VZD (0)+LD (0); #p<0.05 vs VZD (0)+LD (6)
The conditions of data set [6]: dry and wet AMD; patients taking versus not taking L-DOPA; cited from earlier work.
Data set [7] concerns 6-OHDA-lesioned hemi-parkinsonian rats. Kind of data set: Experiment 2: forepaw adjusting steps (FAS). The data set is classed as in vivo, Sprague-Dawley rats. The following applies: L-DOPA-naive rats; VZD 0, 10 or 20 mg/kg + L-DOPA 6 mg/kg; Days 1, 8, 15, 22. Here is the method:
as §1, with “[…].). All VZD injections were administered 5 min prior to LD. […] AIMs values expressed are the median sum of axial, limb, and orolingual (ALO) behaviors. […] Values are expressed as medians [±median absolute difference (M.A.D.)].” for “Conti et al., 2014).”

For data set [8] the following is noted: in vivo; cited from earlier work.
In data set [9] the test system is striatal c-Fos, PPD, PPE, PPT and 5-HT1AR mRNA. The experiment in a line: Experiment 2: real-time RT-PCR of striatal gene expression. For orientation: In qPCR the cycle at which signal appears reflects the starting amount.
For another data set, the target named is 5HT2A. The following applies: rat cerebral cortex; read-out: affinity Ki; cited from earlier work.
In data set [10] the test system is L-DOPA-primed 6-OHDA-lesioned rats. The experiment in a line: Experiment 3: AIMs with 5-HT1AR or 5-HT1BR antagonist before Vilazodone and L-DOPA. The data set is classed as in vivo, Sprague-Dawley rats. The following applies: then VZD 0 or 10 mg/kg, then L-DOPA 6 mg/kg, s.c.
Experimental: In each study, the LD-primed rats received (FIG. 4A) the 5-HT1AR antagonist WAY100635 [WAY; 0 or 0.5 mg/kg, s.c.] or (FIG. 4B) the 5-HT1BR antagonist NAS [NAS; 0 or 0.3 mg/kg, s.c.]) 5 min prior to VZD (0 or 10 mg/kg, s.c.) injected 5 min prior to LD (6 mg/kg, s.c.) in a within-subjects counterbalanced design. ALO AIMs were evaluated and are shown for every 10 min for 3 h after LD administration.
All 6-OHDA-lesioned rats (n=17) were tested on the FAS prior to treatment regimens to establish baseline motor performance. Three-weeks post-surgery, all rats were primed with L-DOPA (6 mg/kg, s.c.) for 14 days.
Beginning 10 min post-treatment, a trained and blinded observer assigned a severity score (0-4) to each of the ALO AIMs based on 1 min ratings every 10 min for 3 h: 0, not present; 1, present from 1-29 s; 2, present 30-59 s; 3, present all 60 s, but interruptible by a cylinder tap; 4, present 60 s and not interruptible by a cylinder tap.
[11] abbreviates: lesioned striata, VZD 0, 10 or 20 mg/kg + L-DOPA 6 mg/kg daily, day 23, 60 min post-injection.

“Also recorded” adds a separate entry of the source. Read-outs that look alike come from different tables or passages of the source.

Turning to `Br.CCCN(CCC)C1CCc2cccc(O)c2C1` (centres unmarked) [8-OH-DPAT, 8-hydroxy-2-(dipropylamino) tetralin hydrobromide], the “increase of [35S]GTPγS binding compared to vehicle” value at 5-HT1A receptor is “eightfold”. Further, the “extracellular dopamine and norepinephrine” value in data set [1] is reported as “caused an increase”. Further, in the data set on DRN 5-HT neurons (rat, in vivo, iv), the “spontaneous firing of DRN 5-HT neurons” value is “suppressed the spontaneous firing of a DRN neuron”.

In the case of `CN(C)CCC[C@@]1(c2ccc(F)cc2)OCc2cc(C#N)ccc21` [Escitalopram], in [2], the “forelimb akinesia and L-DOPA prokinetic / therapeutic efficacy (stepping test)” value is “affected L-DOPA therapeutic efficacy; also recorded: interfered with the therapeutic efficacy of L-DOPA”. In addition, in data set [3] (pretreatment with vilazodone 10 mg/kg or escitalopram 12.5 mg/kg before L-DOPA 5 mg/kg, 2 weeks), the “LIDs score / severity” value is given as “significantly reduced LIDs severity; also recorded: significant reduction in total LIDs score”.

Turning to `N[C@@H](Cc1ccc(O)c(O)c1)C(=O)O` [L-DOPA, L-3,4-dihydroxyphenylalanine], in data set [4], the “FAS motor performance versus baseline” value is “significant improvements on motor performance over baseline”. Besides, the “DRN levels of DA, DOPAC and DA Turnover” value in data set [5] (L-DOPA 6 mg/kg) is “significantly increased DRN levels of DA, DOPAC and DA Turnover”. For the same compound, in data set [5] (Intact), the 5-HIAA is recorded as 650 ± 68.9 picograms per milligram wet ti, the 5-HT was 241 ± 29.6^ picograms per milligram wet ti, the “5-HT Turnover” value is 2.77 ± 0.15+ and the DA was 4561 ± 210 picograms per milligram wet ti. Also, in data set [5] (Intact), the “DA Turnover” value worked out at 0.89 ± 0.04 and the DOPAC is given as 4051 ± 224 picograms per milligram wet ti. Moreover, in [5] (Lesion), the 5-HIAA was 907 ± 82.5 picograms per milligram wet ti, the 5-HT is reported as 264 ± 39.6 picograms per milligram wet ti, the “5-HT Turnover” value is given as 3.93 ± 0.63 and the DA is 83.3 ± 7.99 picograms per milligram wet ti. Further, in data set [5] (Lesion), the “DA Turnover” value turned out to be 1.42 ± 0.23 and the DOPAC is recorded as 127 ± 30.7 picograms per milligram wet ti. The “delay of onset of AMD” value in [6] is recorded as “around 8 years”. In addition, in [7], the “FAS stepping relative to baseline” value was “significant increases in motor ability on each test day”. Besides, the “fraction that crosses the blood-brain barrier” value in data set [8] was 5-10%. Moreover, in [9] (FIG. 6B), the “striatal PPT mRNA” value was “did not increase striatal PPT”. The “striatal PPE mRNA” value in data set [9] (lesioned striata, L-DOPA 6 mg/kg, Vilazodone 20 mg/kg) is reported as “significantly increased PPE”. For the same compound, in data set [9] (setting [11]), the “striatal PPD mRNA” value is “significantly increased PPD” and the “striatal c-Fos mRNA” value is on record as “potentiated c-Fos”.

Turning to `O=S1(=O)N(CCN2CC=C(c3c[nH]c4cc(F)ccc34)CC2)c2cccc3c2N1CCC3` [LY367265], at 5HT2A, the Ki (usually the dissociation constant of the complex between target and ligand, obtained from inhibition or displacement) is 490 nM.

In the case of `c1ccc2c(c1)OC[C@H](CNCCCOc1ccc3c(c1)OCO3)O2` [MKC-242], the “extracellular dopamine and norepinephrine” value in [1] is listed as “caused an increase”.

With `C1=C(CN2CCOCC2)COc2c1cccc2OC[C@H]1CNCCO1.CS(=O)(=O)O` [NAS-181, (R)-(+)-2-(3-morpholinomethyl-2H-chromen-8-yl) oxymethyl-morpholine methane-sulfonate], the “ALO AIMs, 5-HT1BR study” value in data set [10] (NAS-181 0 or 3.0 mg/kg) was “did not significantly alter AIMs or their reduction by Vilazodone”.

Regarding `COc1ccccc1N1CCN(CCN(C(=O)C2CCCCC2)c2ccccn2)CC1.O=C(O)/C=C\C(=O)O` [WAY100635, N-[2-[4(2-Methoxyphenyl)-1-piperazinyl]ethyl]-N-2-pyridinylcyclohexanecarboxamide maleate salt], the “summed ALO AIMs, 5-HT1AR study” value in data set [10] (WAY100635 0 or 0.5 mg/kg) is reported as “partially reversed the anti-dyskinetic efficacy of Vilazodone”. The “spontaneous firing of DRN 5-HT neurons” value in the data set on DRN 5-HT neurons (i.v., 8-OH-DPAT then WAY-100635 100 μg/kg, BFP and D2Rs expressing rats) is recorded as “return to baseline firing was observed”. The “effect of 5-HT1A blockade on vilazodone's benefit on LIDs” value in [3] (WAY100635 with vilazodone + L-DOPA) was “reverses the beneficial effects of vilazodone on LIDs”.

As to `O=C1CC2(CCCC2)CC(=O)N1CCCCN1CCN(c2ncccn2)CC1` [buspirone], the “extracellular dopamine and norepinephrine” value in [1] was “caused an increase”.

For `CNCCC(Oc1ccc(C(F)(F)F)cc1)c1ccccc1` (centres unmarked) [fluoxetine], the results for the “maximal increase of extracellular 5-HT” value in data set [1] (frontal cortex) and in data set [1] (ventral hippocampus) were 165% and 274%, respectively.
